Patent US3995058A, “Treatment of ethanol withdrawal symptoms with levodopa” (priority 1975, dated 1976)
Where two headings read alike, the source gives them in different places.

Experiments:
parkinsonism tremor = details: in vivo; cited from earlier work
[1] = tested on: ethanol withdrawal head-twitches; assay: Suppression of ethanol withdrawal head-twitches in mice habituated to ethanol; format: in vivo, mice (male T/O); details: for ED50: Mus musculus; for suppression of head-twitches: mice undergoing ethanol withdrawal
Protocol: (§1) Male T/O mice were habituated to ethanol by oral administration of aqueous ethanol solutions over three days. Ethanol was administered as a 40% w/v solution, the animals receiving 4 g/kg on the first day, 5 g/kg on the second day and 6 g/kg on the third day. Twenty-four hours after the third dose, approximately 12 hours after blood ethanol had fallen to zero, mice were observed over a period of 4 minutes in groups of five and the number of head-twitches were recorded for each animal. All animals received two doses of levodopa or vehicle, one 6 hours after the last dose of ethanol and the other one hour before observation of the animals. The amount of discoordination produced by each treatment was also determined by measuring the animals' ability to remain for 1 minute on a drum, 30 cm diameter, rotating at a speed of 1 rpm. Using a quantal method the median effective dose (ED50) to suppress head-twitches was determined. […] The ratio FD50 to ED50 gives the therapeutic ratio.
All drugs given one hour before observation except noradrenaline (35
minutes). Doses are expressed as mg/kg orally (P.O.), subcutaneously
(S.C.) or intracerebrally (I.C.V.). *Animals in levodopa experiment
received two doses of levodopa or vehicle, the first being given six hour
after the last dose of ethanol, the second one hour before observation.
The values indicated are computed from the doses of levodopa given on eac
(§2) occasion. The dose of each drug to discoordinate 50% of the animals (FD
(§3) 50) was compared with the dose that reduced to 50% the proportion of mice
(§4) showing head-twitches (ED 50).

[2] = Therapeutic ratio FD50/ED50 (discoordination against head-twitches); details: mouse, in vivo
Protocol: as §1, §2, §3, §4

[3] = Discoordination: ability to remain for 1 minute on a rotating drum; details: mouse, in vivo; for TD50 at 1 h: po
Protocol: as §1, §2, §3

depression = details: in vivo; cited from earlier work
brain catecholamines = details: increasing doses of levodopa; cited from earlier work
sleep = details: cited from earlier work
discoordination = assay: Discoordination: ability to remain for 1 minute on a rotating drum; details: mouse, in vivo
Protocol: as §1, §2, §3

[4] = tested on: delirium tremors or seizures; details: severe cases of physical dependence; cited from earlier work
withdrawal symptoms = assay: Production of withdrawal symptoms; details: in vivo

With `NC(CO)C(=O)NNCc1cc(O)c(O)c(O)c1` (racemic) [N'-(D,L-seryl)-N"-(3,4,5-trihydroxybenzyl)-hydrazine] as the compound, how does the “control of parkinsonism tremor” value (parkinsonism tremor) read?
The value was “useful in the control of parkinsonism tremor”.

For `CC(N)Cc1ccccc1.O=S(=O)(O)O` (centres unmarked) [Amphetamine sulphate], which ED50 ([1]; sc, 1 h, read-out: ED 50 value to reduce head-twitches (with 95% fiducial limits)) is on record?
Its ED50 is 7.18 mg/kg.

What about the suppression of head-twitches ([1]; subcutaneously) of the same compound?
The suppression of head-twitches was “complete suppression of head-twitches”.

What does the source list for `CCO` [Ethanol, ethanol]?
selectivity ratio ([2]; po): 0.6; ED50 ([1]; po, 1 h, P.O., one hour before observation, read-out: ED 50 value to reduce head-twitches (with 95% fiducial limits)): 3990 mg/kg; TD50 at 1 h [3]: 2500 mg/kg

For `N[C@@H](Cc1ccc(O)c(O)c1)C(=O)O` [L-DOPA, L-β-3,4-dihydroxyphenylalanine], which “therapeutic use in the treatment of depression” value (depression) is on record?
The value was “of questionable value”.

What about the selectivity ratio ([2]; po) of the same compound?
Its selectivity ratio is 3.5.

What about the ED50 ([1]; po, P.O.*, two doses: 6 h after last ethanol and 1 h before observation, per-occasion dose, limits 63-1213, read-out: ED 50 value to reduce head-twitches (with 95% fiducial limits)) of the same compound?
Its ED50 is 232 mg/kg.

And the ED50 ([1]; po, levodopa, text of summary, read-out: median effective dose (ED50) required to prevent or suppress withdrawal symptoms)?
Its ED50 is 231 mg/kg.

What about the “shift of brain catecholamine levels” value (brain catecholamines) of the same compound?
Its value is “increasing shift of brain levels from dopamine to noradrenaline”.

And the “effect on sleeping time with repeated doses” value (sleep; increasing numbers of doses)?
Its value is “this effect became smaller with increasing numbers of doses”.

And the “increase in sleeping time” value (sleep; single dose 400 mg/kg)?
Its value is “three-fold increase in sleeping time”.

And the TD50 at 1 h [3]?
Its TD50 at 1 h is over 800 mg/kg.

What about the animals discoordinated (discoordination) of the same compound?
The animals discoordinated was “none of the animals were discoordinated”.

Which selectivity ratio [2] does the source give for `NC[C@H](O)c1ccc(O)c(O)c1` [Noradrenaline] here?
Its selectivity ratio is over 3.3.

What about the ED50 ([1]; central, 35 min, I.C.V., 35 minutes before observation, read-out: ED 50 value to reduce head-twitches (with 95% fiducial limits)) of the same compound?
Its ED50 is 0.003 mg/kg.

And the suppression of head-twitches ([1]; intracerebral injection)?
The suppression of head-twitches was “complete suppression of head-twitches”.

What about the TD50 at 35 min ([3]; icv or intrathecal) of the same compound?
The TD50 at 35 min was over 0.01 mg/kg.

Which selectivity ratio ([2]; po) does the source give for `CCCC(C)C1(CC)C(=O)NC(=O)NC1=O` (centres unmarked) [Pentobarbitone sodium] here?
Its selectivity ratio is 0.4.

And the ED50 ([1]; po, 1 h, read-out: ED 50 value to reduce head-twitches (with 95% fiducial limits))?
The ED50 was 231 mg/kg.

What about the TD50 at 1 h [3] of the same compound?
The TD50 at 1 h was 91 mg/kg.

With `CN(C)CCCN1c2ccccc2Sc2ccc(Cl)cc21` [chlorpromazine] as the compound, how does the “prevention of delirium tremors or seizures” value [4] read?
Its value is “ineffective to prevent delirium tremors or seizures”.

Which “prevention of delirium tremors or seizures” value [4] does the source give for `CN(C)CCCN1c2ccccc2Sc2ccccc21` [promazine] here?
Its value is “ineffective to prevent delirium tremors or seizures”.

For `CC(N)(Cc1ccc(O)cc1)C(=O)O` (stereo not drawn) [α-methyl p-tyrosine], which withdrawal symptoms produced (withdrawal symptoms) is on record?
Its withdrawal symptoms produced is “produces withdrawal symptoms that can be reduced by anti-serotonin agents”.

With `CC(Cc1ccc(O)c(O)c1)(NN)C(=O)O` (stereo not drawn) [α-methyl-dopa hydrazine] as the compound, how does the “control of parkinsonism tremor” value (parkinsonism tremor) read?
Its value is “useful in the control of parkinsonism tremor”.
